# Measured values taken from US6368651B1, “Use of additives to modify the taste characteristics of N-neohexyl-α-aspartyl-L-phenylalanine methyl ester” (The NutraSweet Company, priority 1999, dated 2002).
# Structures can show the parent of a compound that is named as a salt. Where a SMILES comes first, the peptide text is derived from it.
# Columns and labels:
# [1] = Taste evaluation in neotame-sweetened cola-flavored beverage; conditions: for taste characteristic imparted by neotame / taste compared to neotame-sweetened cola-flavored beverage / taste of beverage across tested concentrations: cola; for effectiveness as taste modifying ingredient: test cola-beverage formulation, concentration not given
# Description: When a neotame salt was used as a taste modifying/sweetening ingredient, the neotame salt as added in an amount sufficient to provide about 15 ppm to about 25 ppm neotame (e.g., about 0.0028 g of a potassium neotame salt would be used to provide 100 ml of a 25 ppm neotame solution). The taste modifying ingredient was dissolved in the sweetened beverage and the beverage was allowed to stand overnight at room temperature prior to evaluation. Evaluations of the cola-flavored beverages were conducted using a beverage containing water, sodium benzoate (0.16%), phosphoric acid (0.22%), citric acid (0.05%), trisodium citrate (0.08%), caffeine (0.03%), Flavor 28 (1.72%), sweetened with neotame in an amount of about 0.0015% to about 0.0025% (15 ppm to 25 ppm), adjusted to pH 3.2 using sodium citrate.
# [2] = Taste evaluation in neotame-sweetened hot cocoa beverage
# [3] = Taste evaluation in neotame-sweetened reconstituted powdered soft drink
# [4] = Taste evaluation of solid tabletop sweetener in whitened, brewed coffee beverage; conditions: for effectiveness as taste modifying ingredient: tabletop sweetener in a whitened coffee beverage, concentration not given
# Description: The following examples 51-78 are directed to solid tabletop sweetener preparations, specifically sachet or packet preparations, comprising mixtures of neotame, one or more taste modifying ingredients and a bulking agent. Taste evaluations were conducted on sweetened coffee or tea beverages prepared by dissolving the solid tabletop sweetener (total weight of 1.00 g) in a cup of brewed coffee or tea. The concentration of the ingredients in the tabletop sweetener is expressed as a percentage by weight, whereas the concentration of the ingredients in the beverage is expressed as parts per million (ppm) or parts per trillion (ppt). The beverages were prepared such that the concentration of neotame in sweetened, whitened coffee beverage was approximately 3-5 ppm and the concentration of neotame in sweetened tea was approximately 5-7 ppm.
# [5] = Taste evaluation in neotame-sweetened gelatin dessert; conditions: glycerin 8.4 ppm
# [6] = on a weight basis; cited from earlier work
compound,measurement,setting,value
OC[C@@H](O)[C@@H](O)[C@H](O)[C@H](O)CO [mannitol],taste characteristic imparted by neotame,"[1]; mannitol 100 ppm to 2,000 ppm",positively affected
CC1=CC(=O)[N-]S(=O)(=O)O1.[K+] [acesulfame-K],taste characteristic imparted by neotame,[2]; acesulfame-K 40 to 100 ppm,positively affected
same,taste characteristic imparted by neotame,"[1]; acesulfame-K 20 to 40 ppm, neotame 15-25 ppm",positively affected
same,taste characteristic imparted by neotame,"[3]; acesulfame-K 40 to 100 ppm, reconstituted punch or lemonade-flavored powdered soft drink",positively affected
COC(=O)[C@H](Cc1ccccc1)NC(=O)[C@H](CC(=O)[O-])NCCC(C)(C)C.[Na+] [sodium-neotame salt],"taste characteristic imparted by neotame, compared to neotame-sweetened coffee beverage","[4]; sodium-neotame salt 0.09% by weight (beverage 3.75 ppm), Unidex",positively affected
OCC(O)CO [glycerol],taste characteristic imparted by neotame,"[4]; glycerol 0.04% to 0.2% by weight (beverage 1.7 to 8.3 ppm), neotame 3.3 ppm, Unidex",positively affected
same,taste characteristic imparted by neotame,"[1]; glycerol 15 ppm to 2,000 ppm",positively affected
same,taste characteristic imparted by neotame,[5],positively affected
same,taste characteristic imparted by neotame,"[3]; glycerin 4 to 35 ppm, reconstituted punch-flavored powdered soft drink",positively affected
OC[C@@H](O)[C@@H](O)[C@H](O)[C@@H](O)CO [sorbitol],effectiveness as taste modifying ingredient,[1],ineffective
polysorbate 65,taste characteristic imparted by neotame,[1]; polysorbate 65 10 to 15 ppm,positively affected
Neotame-monopotassium phosphate,effectiveness as taste modifying ingredient,[1],ineffective
COC(=O)[C@H](Cc1ccccc1)NC(=O)[C@H](CC(=O)[O-])NCCC(C)(C)C.[K+] [potassium-neotame salt],"taste characteristic imparted by neotame, compared to neotame-sweetened coffee beverage","[4]; potassium-neotame salt 0.11% by weight (beverage 4.58 ppm), Unidex",positively affected
same,taste compared to neotame-sweetened cola-flavored beverage,[1]; potassium-neotame salt as sweetener,improved taste
C[C@@H](O)[C@H](N)C(=O)O [threonine],taste characteristic imparted by neotame,[1]; threonine 5 ppm to 30 ppm,positively affected
[Cl-].[K+] [potassium chloride],effectiveness as taste modifying ingredient,[1],ineffective
COC(=O)[C@H](Cc1ccccc1)NC(=O)[C@H](CC(=O)[O-])NCCC(C)(C)C.COC(=O)[C@H](Cc1ccccc1)NC(=O)[C@H](CC(=O)[O-])NCCC(C)(C)C.[Ca+2] [calcium-neotame salt],"taste characteristic imparted by neotame, compared to neotame-sweetened coffee beverage","[4]; calcium-neotame salt 0.056% by weight (beverage 2.33 ppm), Unidex",positively affected
same,taste compared to neotame-sweetened cola-flavored beverage,[1]; calcium-neotame salt as sweetener,improved taste
neotame-phosphate salt,taste compared to neotame-sweetened cola-flavored beverage,[1]; neotame-phosphate salt as sweetener,improved taste
COC(=O)[C@H](Cc1ccccc1)NC(=O)[C@@H](N)CC(=O)O [aspartame] (H-Asp-Phe-OMe),taste characteristic imparted by neotame,"[4]; aspartame 0.6% to 1.25% by weight (beverage 25 to 52 ppm), neotame 3.75 ppm, Unidex bulking agent",positively affected
same,taste characteristic imparted by neotame,[2]; aspartame 100 ppm,positively affected
same,taste characteristic imparted by neotame,[1]; aspartame 20 to 40 ppm,positively affected
same,taste characteristic imparted by neotame,"[3]; aspartame 100 to 160 ppm, reconstituted punch or lemonade-flavored powdered soft drink",positively affected
thaumatin,taste characteristic imparted by neotame,"[4]; thaumatin 0.12% by weight (beverage 5.0 ppm), neotame 3.75 ppm, Unidex",positively affected
CCc1occc(=O)c1O [ethyl maltol],taste characteristic imparted by neotame,"[4]; ethyl maltol 0.0482% by weight (beverage 2 ppm), neotame 3.75 ppm, Unidex",positively affected
[Cl-].[Na+] [sodium chloride],taste characteristic imparted by neotame,[1]; sodium chloride 5 to 50 ppm,positively affected
same,taste of beverage across tested concentrations,[1]; sodium chloride 10 ppm,best tasting beverage
N[C@@H](Cc1ccc(O)cc1)C(=O)O [L-tyrosine],taste characteristic imparted by neotame,"[4]; L-tyrosine 0.288% by weight (beverage 12 ppm), neotame 3.75 ppm, Unidex",positively affected
same,taste characteristic imparted by neotame,[1]; L-tyrosine 15 to 50 ppm,positively affected
same,taste characteristic imparted by neotame,"[3]; tyrosine 35 ppm, reconstituted punch-flavored powdered soft drink",positively affected
Cn1c(=O)c2c(ncn2C)n(C)c1=O [caffeine],taste characteristic imparted by neotame,[1]; caffeine 140 to 425 ppm,positively affected
COc1ccc(CCC(=O)c2c(O)cc(O[C@@H]3O[C@H](CO)[C@@H](O)[C@H](O)[C@H]3O[C@@H]3O[C@@H](C)[C@H](O)[C@@H](O)[C@H]3O)cc2O)cc1O [neohesperidin dihydrochalcone],taste characteristic imparted by neotame,"[4]; neohesperidin dihydrochalcone 0.040% to 0.048% by weight (beverage 1.68 to 2.0 ppm), neotame 3.75 ppm, Unidex",positively affected
same,taste characteristic imparted by neotame,[2]; neohesperidin dihydrochalcone 2 to 3 ppm,positively affected
same,taste characteristic imparted by neotame,[1]; NHDC 3 ppm,positively affected
same,taste characteristic imparted by neotame,"[3]; neohesperidin dihydrochalcone 2 to 3 ppm, reconstituted punch or lemonade flavored powdered soft drinks",positively affected
beta cyclodextrin-neotame complex,taste characteristic imparted by neotame,"[4]; beta cyclodextrin-neotame complex 1.409% by weight (beverage 58.7 ppm, neotame 3.3 ppm), Unidex",positively affected
O=C1NS(=O)(=O)c2ccccc21 [saccharin],taste characteristic imparted by neotame,"[4]; saccharin 1.32% by weight (beverage 5.5 ppm), neotame 3.75 ppm, Unidex",positively affected
same,taste characteristic imparted by neotame,[2]; saccharin 20 to 40 ppm,positively affected
same,taste characteristic imparted by neotame,[1]; saccharin 20 to 150 ppm,positively affected
same,taste of beverage across tested concentrations,[1]; saccharin 100 ppm,best tasting beverage
same,taste characteristic imparted by neotame,"[3]; saccharin 20 to 40 ppm, reconstituted punch or lemonade-flavored powdered soft drink",positively affected
neotame-monocalcium phosphate,effectiveness as taste modifying ingredient,[1],ineffective
[Ca+2].[Cl-].[Cl-] [calcium chloride],taste characteristic imparted by neotame,"[4]; calcium chloride 0.072% by weight (beverage 3 ppm), neotame 3.75 ppm, Unidex",positively affected
C[C@@H]1O[C@@H](O[C@H]2[C@H](Oc3cc(O)c4c(c3)O[C@H](c3ccc(O)cc3)CC4=O)O[C@H](CO)[C@@H](O)[C@@H]2O)[C@H](O)[C@H](O)[C@H]1O [naringin],effectiveness as taste modifying ingredient,[1],ineffective
C=C[C@H]1C[N@@]2CC[C@H]1C[C@H]2[C@H](O)c1ccnc2ccc(OC)cc12 [quinine sulfate],taste characteristic imparted by neotame,[1]; quinine sulfate 0.01 to 1 ppm,positively affected
"COC(=O)[C@H](Cc1ccccc1)NC(=O)[C@H](CC(=O)O)NCCC(C)(C)C [neotame, N-[N-(3,3-dimethylbutyl)-L-α-aspartyl]-L-phenylalanine 1-methyl ester]",sweetness relative to sucrose,[6],"approximately 8,000 times as sweet as sucrose"
OC[C@H]1O[C@@](CO)(O[C@H]2O[C@H](CO)[C@@H](O)[C@H](O)[C@H]2O)[C@@H](O)[C@@H]1O [sucrose],taste characteristic imparted by neotame,[1]; sucrose 2000 ppm to 4000 ppm,positively affected
CC1(C)[C@@H](O[C@H]2O[C@H](C(=O)O)[C@@H](O)[C@H](O)[C@H]2O[C@@H]2O[C@H](C(=O)O)[C@@H](O)[C@H](O)[C@H]2O)CC[C@]2(C)[C@H]3C(=O)C=C4[C@@H]5C[C@@](C)(C(=O)O)CC[C@]5(C)CC[C@@]4(C)[C@]3(C)CC[C@@H]12.N [monoammonium glycyrrhizinate],taste characteristic imparted by neotame,[1]; monoammonium glycyrrhizinate 0.25 ppm,positively affected
OC[C@@H](O)[C@@H](O)CO [erythritol],taste characteristic imparted by neotame,"[1]; erythritol 200 ppm to 10,000 ppm",positively affected
CC1=CC(=O)NS(=O)(=O)O1.COC(=O)C(Cc1ccccc1)NC(=O)C(CC(=O)O)NCCC(C)(C)C (centres unmarked) [acesulfame-neotame salt],taste compared to neotame-sweetened cola-flavored beverage,[1]; acesulfame-neotame salt 40 ppm,improved taste
COc1cc(C=O)ccc1O [vanillin],taste characteristic imparted by neotame,"[3]; vanillin 0.5 ppm, reconstituted punch and lemonade-flavored soft drinks",positively affected
COC1=C(C)OC(C)C1=O (centres unmarked) [Mesifuran],effectiveness as taste modifying ingredient,[1],not an effective taste modifying ingredient
Cc1occc(=O)c1O [maltol],taste characteristic imparted by neotame,"[4]; maltol 0.035% by weight (beverage 1.44 ppm), neotame 3.75 ppm, Unidex",positively affected
polysorbate 80,effectiveness as taste modifying ingredient,[4],effective
same,taste characteristic imparted by neotame,[1]; polysorbate 80 10 to 15 ppm,positively affected
polysorbate 60,taste characteristic imparted by neotame,"[4]; polysorbate 60 0.05% to 0.10% by weight (beverage 2.08 to 4.2 ppm), neotame 3.75 ppm, Unidex",positively affected
same,effectiveness as taste modifying ingredient,[4],effective
same,taste characteristic imparted by neotame,[1]; polysorbate 60 10 to 15 ppm,positively affected
OC[C@@H](O)[C@H](O)[C@@H](O)CO [xylitol],effectiveness as taste modifying ingredient,[1],ineffective
